Results as given in patent publication US6896900B2, “β-L-2'-deoxy-nucleosides for the treatment of HIV infection” (Emory University, priority 1998, dated 2005).

Legend:
[1] = Cytotoxicity in CEM cells; type: cell-based; conditions: human
HIV-1 (strain LAV) = assay: Inhibition of HIV-1 replication in human PBM cells (reverse transcriptase readout); type: cell-based; conditions: for EC50: Human immunodeficiency virus 1, PBMC, 144 h, HIV-1 strain LAV, day 6, read-out: Antiviral Activity EC50
Protocol: Antiviral compositions can be screened in vitro for inhibition of HIV by various experimental techniques. One such technique involves measuring the inhibition of viral replication in human peripheral blood mononuclear (PBM) cells. The amount of virus produced is determined by measuring the quantity of virus-coded reverse transcriptase (RT), an enzyme found in retroviruses, that is present in the cell culture medium.
Three-day-old phytohemagglutinin-stimulated PBM cells (10^6 cells/ml) from hepatitis B and HIV-1 seronegative healthy donors were infected with HIV-1 (strain LAV) at a concentration of about 100 times the 50% tissue culture infectious done (TICD 50) per ml and cultured in the presence and absence of various concentrations of antiviral compounds.
Approximately one hour after infection, the medium, with the compound to be tested (2 times the final concentration in medium) or without compound, was added to the flasks (5 ml; final volume 10 ml). AZT was used as a positive control. The cells were exposed to the virus (about 2×10^5 dpm/ml, as determined by reverse transcriptase assay ) and then placed in a CO2 incubator. HIV-1 (strain LAV) was obtained from the Centers for Disease Control, Atlanta, Ga. The methods used for culturing the PBM cells, harvesting the virus and determining the reverse transcriptase activity were those described by McDougal et al. (J. Immun. Meth. 76, 171-183, 1985) and Spira et al., (J. Clin. Meth. 25, 97-99, 1987), except that fungizone was not included in the medium (see Schinazi, et al., Antimicrob. Agents Chemother. 32, 1784-1787 (1988); Antimicrob. Agents Chemother., 34: 1061-1067 (1990)).
On day 6, the cells and supernatant were transferred to a 15 ml tube and centrifuged at about 900 g for 10 minutes. Five ml of supernatant were removed and the virus was concentrated by centrifugation at 40,000 rpm for 30 minutes (Beckman 70.1 Ti rotor). The solubilized virus pellet was processed for determination of the levels of reverse transcriptase. Results are expressed in dpm/ml of sampled supernatant. Virus from smaller volumes of supernatant (1 ml) can also be concentrated by centrifugation prior to solubilization and determination of reverse transcriptase levels.
The median effective (EC50) concentration was determined by the median effect method (Antimicrob. Agents Chemother. 30, 491-498 (1986). Briefly, the percent inhibition of virus, as determined from measurements of reverse transcriptase, is plotted versus the micromolar concentration of compound. The EC50 is the concentration of compound at which ther is a 50% inhibition of viral growth.
(§1) The anti-HIV activity of L-2′-A-5-FddC and L-3′-A-5-FddC was tested in CEM and PBM cells.

[2] = Cytotoxicity in uninfected human PBM cells (trypan blue cell count); type: cell-based; conditions: mitogen-stimulated uninfected human PBM cells, six days
Protocol: Mitogen stimulated uninfected human PBM cells (3.8×10^5 cells/ml) were cultured in the presence and absence of drug under similar conditions as those used for the antiviral assay described above. The cells were counted after six days using a hemacytometer and the trypan blue exclusion method, as described by Schinazi et al., Antimicrobial Agents and Chemotherapy, 22(3), 499 (1982). The IC50 is the concentration of compound which inhibits 50% of normal cell growth. The anti-HIV activity of L-2′-A-5-FddC and L-3′-A-5-FddC was tested in CEM and PBM cells.

HIV = assay: Anti-HIV activity in CEM cells; type: cell-based; conditions: for EC50: Human immunodeficiency virus 1, CCRF-CEM, read-out: Antiviral Activity EC50
Protocol: as §1

SMILES	IC50 [1] [µM]	Selectivity Index IC50/EC50 (HIV-1 (strain LAV))	EC50 (HIV-1 (strain LAV)) [µM]	IC50 at 6 days [2] [µM]	Selectivity Index IC50/EC50 (HIV)	EC50 (HIV) [µM]	melting point [°C]
[N-]=[N+]=NC1C[C@H](CO)O[C@@H]1n1cc(F)c(N)nc1=O (stereo partly drawn) [L-2′-A-5-FddC, β-L-(2′-azido)-2′,3′-dideoxy-5-fluorocytosine]	> 100	>100	1	> 100	>30	3.9	219 to 221
[N-]=[N+]=NC1C[C@@H](n2cc(F)c(N)nc2=O)O[C@H]1CO (stereo partly drawn) [L-3′-A-5-FddC, β-L-(3′-azido)-2′,3′-dideoxy-5-fluorocytosine]	> 100	>2647	0.05	> 100	>344	0.29	–
